According to patent publication US5849777A, “Cell differentiation induction with mevalonate and mevalonolactone derivatives” (University of New Mexico, priority 1995, dated 1998):
Where two headings read alike, the source gives them in different places.

Key:
[1] = test system: Human peripheral blood leukocytes; test: IgG production by human peripheral blood leukocytes (HPBL) in vitro; assay type: cell-based; conditions: for Inhibitory Concentration (concentration inhibiting nonspecific IgG production below normal production): HPBL, additional 90 h culture
Procedure: Human peripheral blood leukocytes were cultured in a standard tissue culture medium. Aliquots of these cultured cells (1,000,000 cells/ml medium) were cultured for 6 hours, and the specified amount of Formula II compound was added; the cells were then cultured for an additional 90 hours. Sheep red blood cells (SRBC) conditioned with class-specific (IgG) goat anti-human antiserum (1:400) for 2 hours; then guinea pig complement (2%) for 2 hours were conjugated to Protein A as described in detail in Radioimaging and Radioimmunotherapy, Eds. S. W. Burchiel and B. A. Rhodes, Elsevier Science Publishing; New York, 1983, pp. 125-127, incorporated herein by reference.
1. Concentration inhibiting nonspecific IgG production below normal production.

Canine glioma cells [2] = test: cytotoxicity as simple survival (T50%); assay type: cell-based; conditions: Canis lupus familiaris, Glioma cell, read-out: T 50%
Procedure: (§1) Cytotoxicity was determined as a function of simple survival (T50 %), adherence (ADH50 %) and thymidine incorporation (I50%) of the cells.
(§2) Estimates of the 50% inhibitory concentrations of the various drugs tested on simple survival (T50%) and adherence (ADH50%) for canine glioma cells.

Canine glioma cells [3] = test: effect on tumor cell generation time, canine glioma; assay type: cell-based; conditions: 10 nM
Procedure: The cells were harvested every 72 hours after the controls had reached 85% confluency. Generation time (Tg) was determined as the number of hours required for the cell population to double.
Mean of triplicate determinations. Canine glioma cells were grown under conditions to promote exponential growth characteristics; 2×10^5cells in a T-25 flask. The cells were harvested every 72 hours after the controls had reached approximately 85% confluency. The drug was added at the initiation of culture in DMSO, the control cultures had just DMSO. The drug concentration was adjusted with DMSO so that the final concentration of DMSO was always 0.5%.

[4] = test system: human colon carcinoma cell line (LS-174); test: effect on tumor cell generation time, human colon carcinoma; assay type: cell-based
Procedure: The procedure of Example VA, above, was repeated except a human colon carcinoma cell line (LS-174) was used instead of the canine glioma cell line.
Mean of triplicate determinations. LS-174 cells (human colon carcinoma) were grown under conditions to promote exponential growth characteristics; 2×10^5 cells in a T-25 flask. The cells were harvested every 72 hours after the controls had reached approximately 85% confluency. The drug was added at the initiation of culture in DMSO, the control cultures had just DMSO. The drug concentration was adjusted with DMSO so that the final concentration of DMSO was always 0.5%.

Canine glioma cells [5] = test: inhibition of thymidine incorporation (I50%); assay type: cell-based; conditions: Canis lupus familiaris, Glioma cell
Procedure: as §1
Estimates of the I50% of the various drugs tested on thymidine incorporation of canine glioma cells in culture.

Canine glioma cells [6] = test: inhibition of adherence (ADH50%); assay type: cell-based; conditions: Canis lupus familiaris, Glioma cell
Procedure: as §1, §2

[7] = target: T1, rat liver HMG-COA reductase (Rattus norvegicus, UniProt P51639); test: inhibition of rat liver HMG-CoA reductase activity; assay type: biochemical
T1 construct: rat liver HMG-COA reductase activity; from tissue; host or cells: rat liver
T1 sequence (P51639 1-887): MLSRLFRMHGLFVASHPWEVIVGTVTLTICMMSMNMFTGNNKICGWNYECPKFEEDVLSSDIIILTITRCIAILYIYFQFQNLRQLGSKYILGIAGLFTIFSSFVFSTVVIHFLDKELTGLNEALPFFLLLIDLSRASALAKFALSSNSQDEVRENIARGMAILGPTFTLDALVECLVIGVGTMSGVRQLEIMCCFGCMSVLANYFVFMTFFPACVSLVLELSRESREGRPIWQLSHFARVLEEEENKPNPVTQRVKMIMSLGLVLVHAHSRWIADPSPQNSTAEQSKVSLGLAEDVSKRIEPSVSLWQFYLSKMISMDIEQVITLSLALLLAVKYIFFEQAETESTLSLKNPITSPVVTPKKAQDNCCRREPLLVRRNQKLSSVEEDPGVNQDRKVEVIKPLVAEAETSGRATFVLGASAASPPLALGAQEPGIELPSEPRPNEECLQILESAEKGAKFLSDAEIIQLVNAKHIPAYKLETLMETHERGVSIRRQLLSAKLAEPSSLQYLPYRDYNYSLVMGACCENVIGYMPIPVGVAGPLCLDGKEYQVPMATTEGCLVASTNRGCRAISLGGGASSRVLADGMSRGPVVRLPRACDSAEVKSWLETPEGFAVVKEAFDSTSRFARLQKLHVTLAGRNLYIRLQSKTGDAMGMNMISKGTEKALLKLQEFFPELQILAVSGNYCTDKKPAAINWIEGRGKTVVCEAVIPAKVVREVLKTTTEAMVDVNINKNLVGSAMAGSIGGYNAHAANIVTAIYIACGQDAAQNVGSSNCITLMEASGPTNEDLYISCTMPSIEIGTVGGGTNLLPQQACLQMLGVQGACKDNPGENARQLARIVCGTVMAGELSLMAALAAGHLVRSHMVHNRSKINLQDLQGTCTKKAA
Description: While a number of the compounds of the Formula I are known HMG-CoA reductase inhibitors, there is no apparent correlation between HMG-CoA reductase inhibitory activity and promotion of differentiation activity according to the invention. […] Accordingly, useful guidelines for selecting compounds having optimal differentiation-promoting activity according to the invention broadly comprise selecting compounds of the Formula I having the specified stereochemical configuration and an in vitro immunological activity as set forth in the in vitro assay of Example II, of at least about 3-fold.

canine glioma cells [8] = test: in vivo tumor inhibition: nude rat model; set-up: species or system Nude Rats (canine glioma cells)
Procedure: Fifty four Nude Rats (Harlan) were injected in the right flank with 5×10^6 canine glioma cells. Animals at the time of injection were between 52 and 63 days old and weighed approximately 200 g. The rats were divided into 7 groups, each group having a total number of 7 rats except for the control group, which totalled 12 animals. Compound IIc' was administered to the experimental animals at one of the following dose for each experimental group: 100 μg/kg, 10 μg/kg, 1 μg/kg, 0.1 μg/kg, 0.01 μg/kg and 0.001 μg/kg (phosphate buffer saline, M, W, F, I.P.). The control animals were injected with PBS (phosphate buffered saline) only. The volume of each injection was 100 μl. The injections of drug were simultaneously begun with injection of tumor cells. The animals were injected with the appropriate dosage of drug (1 ng/kg to […]) by I.P. injection and tumor length, width and depth were measured using caliphers each Monday, Wednesday and Friday (M, W, F) morning for approximately 9 weeks. Each point on the graphs represents the total of all rats for each group. […] The data were normalized for the greater number of control animals by multiplying the total tumor volume for the control animals by 7/12.

CG (canine glioma) cells = test: tumor-specific antibody production in vivo (anti-CG IgG titer); set-up: species or system dog
Description: Titer of CG-specific antibody was compared to control [no administration of compound IIa' and no implantation of CG (canine glioma) cells]. […] This increase in titer continued with time until tumor regression was noted by independent measurement (NMR evaluation, below).
The results are particularly striking as the experimental tumor (brain glioma) is generally considered to enjoy a privileged position beyond the blood/brain barrier, substantially beyond the reach of the humoral immune system. Experimental protocols are described in detail below (FIGS. 7-9, Example VII).

CG tumor = test: chromium-release cell-mediated lympholysis (CML) vs CG tumor; assay type: in vivo, dog
Description: Cellular immune response reflected the results reported in III, 1 above. […] This also is in the absence of CG antigen exposure. […] Thus both cellular and humoral immunity appear to be modulatable in the absence of antigen by the compounds of the instant invention.

[9] = read-out: IC50 (concentration for 50% inhibition of rat liver HMG-COA reductase activity), Table I

SMILES: CC(C)c1nc(-c2ccccc2)n(-c2ccc(F)cc2)c1/C=C/[C@H](O)C[C@@H](O)CC(=O)O (relative stereo) [Compound IIe']
- Stimulation of IgG Production ([1]; 1&100 nM): 1990%
- activation at 0.0001 µM ([1]; Homo sapiens, Leukocyte, 90 h, 100 pM, read-out: Stimulation of IgG Production): < 350%
- IC50 (Canine glioma cells [2]; 24 h exposure): 750 nM
- IC50 (Canine glioma cells [2]; 72 h exposure): 800 nM
- IC50 (Canine glioma cells [2]; 96 h exposure): 900 nM
- contact inhibition as the cells approached confluency (Canine glioma cells [3]): showed evidence of contact inhibition
- % CHANGE (Tg) (Canine glioma cells [3]; 72 × 2 h): 129%
- Tg (Canine glioma cells [3]; 72 × 2 h): 24.0 h
- % CHANGE (Tg) (Canine glioma cells [3]; 72 × 3 h): 180%
- Tg (Canine glioma cells [3]; 72 × 3 h (three passages), control 18.6 h): 33.4 h
- % CHANGE (Tg) (Canine glioma cells [3]; 72 × 4 h): 155%
- Tg (Canine glioma cells [3]; 72 × 4 h): 28.9 h
- % CHANGE (Tg) (Canine glioma cells [3]; 72 h): 136%
- Tg (Canine glioma cells [3]; 72 h): 25.3 h
- slowing of the growth rate (Canine glioma cells [3]; three passages): 1.8 fold
- % CHANGE (Tg) ([4]; 10 nM, 72 × 2 h): 400%
- Tg ([4]; 10 nM, 72 × 2 h): 106.2 h
- % CHANGE (Tg) ([4]; 10 nM, 72 × 3 h): 416%
- Tg ([4]; 10 nM, 72 × 3 h (three passages), control 26.5 h): 110.3 h
- % CHANGE (Tg) ([4]; 10 nM, 72 × 4 h): 414%
- Tg ([4]; 10 nM, 72 × 4 h): 109.6 h
- % CHANGE (Tg) ([4]; 10 nM, 72 h): 320%
- Tg ([4]; 10 nM, 72 h): 84.9 h
- prolongation of generation time ([4]; 10 nM, three passages): 4.16 fold
- generation time after drug withdrawn ([4]; drug withdrawn, two passages): returned to control levels
- IC50 (Canine glioma cells [5]; 24 h exposure, read-out: I50%): 50 nM
- IC50 (Canine glioma cells [5]; 48 h exposure, read-out: I50%): 75 nM
- IC50 (Canine glioma cells [5]; 72 h exposure, read-out: I50%): 80 nM
- IC50 (Canine glioma cells [5]; 96 h exposure, read-out: I50%): 50 nM
- IC50 (Canine glioma cells [5]; Table V, all exposure times, read-out: I50% (thymidine incorporation into DNA)): 50 to 80 nM
- IC50 (Canine glioma cells [6]; 24 h exposure): 75 nM
- IC50 (Canine glioma cells [6]; 72 h exposure): 70 nM
- IC50 (Canine glioma cells [6]; 96 h exposure): 75 nM
- IC50 ([7]; Example IV, read-out: IC50 (HMG-CoA reductase)): 3 nM
- IC50 [7, 9]: 3 nM

SMILES: CC(C)c1nc(-c2ccccc2)n(-c2ccc(F)cc2)c1/C=C/[C@H](O)C[C@@H](O)CC(=O)O [Compound IIc']
- optimal dose in vitro (immune stimulation) ([1]; HPBL assay): 100 pM
- Inhibitory Concentration (concentration inhibiting nonspecific IgG production below normal production) [1]: none found
- immune stimulant (in words) ([1]; see Examples above): potent immune stimulant
- optimal dose in vivo, equivalent concentration with uniform distribution (canine glioma cells [8]; 100 ng/kg): 250 pM
- most effective dosage for inhibition of canine glioma cells (canine glioma cells [8]; I.P., M, W, F, approx. 9 weeks (FIG. 3)): 100 ng/kg
- cytostatic activity (canine glioma cells [8]; higher doses, 10 and 100 μg/kg I.P.): Little or no cytostatic activity
- cytostatic activity (canine glioma cells [8]; lowest dose, 1 ng/kg I.P.): Little or no cytostatic activity
- IC-50% TITER (ANTI-CG) (CG (canine glioma) cells; treatment 2+ months, tumor regressed): BASELINE VALUES
- slope "M" (LINEAR REGRESSION OF TOXICITY), Y = "M"X + B (CG tumor; December 14, 1987): 0.05
- slope "M" (LINEAR REGRESSION OF TOXICITY), Y = "M"X + B (CG tumor; February 9, 1988): 0.35
- slope "M" (LINEAR REGRESSION OF TOXICITY), Y = "M"X + B (CG tumor; February 17, 1988): 0.75
- slope "M" (LINEAR REGRESSION OF TOXICITY), Y = "M"X + B (CG tumor; March 31, 1988): 0.05
- IC50 [7, 9]: 22 nM

SMILES: CC(C)c1nc(-c2ccccc2)n(-c2ccc(F)cc2)c1/C=C/[C@H](O)C[C@H](O)CC(=O)O [IIa]
- Inhibitory Concentration (concentration inhibiting nonspecific IgG production below normal production) [1]: none found
- CG-specific antibody (CG (canine glioma) cells; at tumor regression, within a few days): reverted to baseline control levels
- CG-specific antibody (IgG) production (CG (canine glioma) cells; following implantation of the CG tumor cells): increased significantly
- titers of antibody over the control antibody titer (CG (canine glioma) cells; in the absence of antigen): titers of antibody increased over the control antibody titer significantly
- CML reactivity (CG tumor; after 5 weeks, tumor totally regressed): returned to baseline
- CG-specific CML (CG tumor; after 14 days of administration, I.P., M, W, F): only baseline levels of CG-specific CML were present
- CML reactivity (CG tumor; after a few days of exposure to the CG tumor implant): large increase in the CML reactivity
- CML (CG tumor; after an additional 2 months, absence of CG antigen exposure): significant increase in CML
- IC50 ([7]; Table I): 3150 nM
